Key:
Assay in all cases: relative viability (nuclei count vs DMSO), 5 days (fraction); higher = more cells survive
HOP-62 = system: HOP-62
Method in brief: (§1)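 Dosing by pin tool came one day after lung cancer cell lines were seeded in 1536-well plates, using either one drug or a fixed anchor-drug dose plus five library-drug doses (not always all listed) in √10 steps. After 5 days, nuclei were counted on 4× images. Relative viability is treated-well nuclei count divided by vehicle-well nuclei count, and values are medians of duplicate plates.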

HCC-78 = system: HCC-78
Method in brief: as §1

NCI-H23 = system: NCI-H23
Method in brief: as §1

NCI-H2228 = system: NCI-H2228
Method in brief: as §1

NCI-H1793 = system: NCI-H1793
Method in brief: as §1

NCI-H1395 = system: NCI-H1395
Method in brief: as §1

ChaGo-K-1 = system: ChaGo-K-1
Method in brief: as §1

NCI-H2405 = system: NCI-H2405
Method in brief: as §1

LC-2-ad = system: LC-2-ad
Method in brief: as §1

NCI-H2126 = system: NCI-H2126
Method in brief: as §1

EMC-BAC-2 = system: EMC-BAC-2
Method in brief: as §1

NCI-H2023 = system: NCI-H2023
Method in brief: as §1

NCI-H1993 = system: NCI-H1993
Method in brief: as §1

NCI-H358 = system: NCI-H358
Method in brief: as §1

NCI-H1944 = system: NCI-H1944
Method in brief: as §1

HCC-366 = system: HCC-366
Method in brief: as §1

NCI-H838 = system: NCI-H838
Method in brief: as §1

ABC-1 = system: ABC-1
Method in brief: as §1

SK-LU-1 = system: SK-LU-1
Method in brief: as §1

HARA = system: HARA
Method in brief: as §1

COR-L23 = system: COR-L23
Method in brief: as §1

HCC-15 = system: HCC-15
Method in brief: as §1

With `COc1nc(C)cnc1NS(=O)(=O)c1cccnc1-c1ccc(-c2nnco2)cc1` [Zibotentan] + COc1cc2c(Oc3ccc(NC(=O)C4(C(=O)Nc5ccc(F)cc5)CC4)cc3F)ccnc2cc1OCCCN1CCOCC1 [Foretinib] (partner 0.25 µM) the relative viability (HOP-62; first compound 0.08 µM) was 1.06, the relative viability (HOP-62; first compound 0.253 µM) was 1.06 and the relative viability (HOP-62; first compound 0.8 µM) was 1.21. It also gave a relative viability (HOP-62; first compound 2.53 µM) of 1.07, a relative viability (HCC-78; first compound 0.08 µM) of 0.535 and a relative viability (HCC-78; first compound 0.253 µM) of 0.484. For the same compound, the relative viability (HCC-78; first compound 0.8 µM) was 0.588, the relative viability (HCC-78; first compound 2.53 µM) was 0.518 and the relative viability (NCI-H23; first compound 0.08 µM) was 1.08. The relative viability (NCI-H23; first compound 0.253 µM) was 0.766, the relative viability (NCI-H23; first compound 0.8 µM) was 0.986 and the relative viability (NCI-H23; first compound 2.53 µM) was 1.17. For the same compound, the relative viability (NCI-H2228; first compound 0.08 µM) was 0.714, the relative viability (NCI-H2228; first compound 0.253 µM) was 0.819 and the relative viability (NCI-H2228; first compound 0.8 µM) was 0.889. It also gave a relative viability (NCI-H2228; first compound 2.53 µM) of 0.801, a relative viability (NCI-H1793; first compound 0.08 µM) of 0.993 and a relative viability (NCI-H1793; first compound 0.253 µM) of 0.721. It also gave a relative viability (NCI-H1793; first compound 0.8 µM) of 0.546, a relative viability (NCI-H1793; first compound 2.53 µM) of 0.808 and a relative viability (NCI-H1395; first compound 0.08 µM) of 1.02. The relative viability (NCI-H1395; first compound 0.253 µM) was 1.07, the relative viability (NCI-H1395; first compound 0.8 µM) was 1.04 and the relative viability (NCI-H1395; first compound 2.53 µM) was 0.941. For the same compound, the relative viability (ChaGo-K-1; first compound 0.08 µM) was 0.941, the relative viability (ChaGo-K-1; first compound 0.253 µM) was 0.926 and the relative viability (ChaGo-K-1; first compound 0.8 µM) was 0.977. The relative viability (ChaGo-K-1; first compound 2.53 µM) was 0.841, the relative viability (NCI-H2405; first compound 0.08 µM) was 1.1 and the relative viability (NCI-H2405; first compound 0.253 µM) was 1.02. It also gave a relative viability (NCI-H2405; first compound 0.8 µM) of 1.04, a relative viability (NCI-H2405; first compound 2.53 µM) of 1.05 and a relative viability (LC-2-ad; first compound 0.08 µM) of 1.02. The relative viability (LC-2-ad; first compound 0.8 µM) was 0.955, the relative viability (LC-2-ad; first compound 2.53 µM) was 0.954 and the relative viability (NCI-H2126; first compound 0.08 µM) was 1.33. For the same compound, the relative viability (NCI-H2126; first compound 0.253 µM) was 1.26, the relative viability (NCI-H2126; first compound 0.8 µM) was 0.982 and the relative viability (NCI-H2126; first compound 2.53 µM) was 1.14. For the same compound, the relative viability (EMC-BAC-2; first compound 0.08 µM) was 1.07, the relative viability (EMC-BAC-2; first compound 0.8 µM) was 1.05 and the relative viability (EMC-BAC-2; first compound 2.53 µM) was 1.05. For the same compound, the relative viability (NCI-H2023; first compound 0.08 µM) was 0.942, the relative viability (NCI-H2023; first compound 0.253 µM) was 0.668 and the relative viability (NCI-H2023; first compound 0.8 µM) was 0.932. It also gave a relative viability (NCI-H2023; first compound 2.53 µM) of 0.978, a relative viability (NCI-H1993; first compound 0.08 µM) of 0.753 and a relative viability (NCI-H1993; first compound 0.253 µM) of 0.811. For the same compound, the relative viability (NCI-H1993; first compound 0.8 µM) was 0.702, the relative viability (NCI-H1993; first compound 2.53 µM) was 0.832 and the relative viability (NCI-H358; first compound 0.08 µM) was 0.809. The relative viability (NCI-H358; first compound 0.253 µM) was 0.485, the relative viability (NCI-H358; first compound 0.8 µM) was 0.595 and the relative viability (NCI-H358; first compound 2.53 µM) was 0.57. For the same compound, the relative viability (NCI-H1944; first compound 0.08 µM) was 1.02, the relative viability (NCI-H1944; first compound 0.253 µM) was 0.806 and the relative viability (NCI-H1944; first compound 0.8 µM) was 0.898. It also gave a relative viability (NCI-H1944; first compound 2.53 µM) of 0.908, a relative viability (HCC-366; first compound 0.08 µM) of 0.977 and a relative viability (HCC-366; first compound 0.253 µM) of 0.903. It also gave a relative viability (HCC-366; first compound 0.8 µM) of 0.964, a relative viability (HCC-366; first compound 2.53 µM) of 0.976 and a relative viability (NCI-H838; first compound 0.08 µM) of 0.992. It also gave a relative viability (NCI-H838; first compound 0.253 µM) of 0.934, a relative viability (NCI-H838; first compound 0.8 µM) of 1.06 and a relative viability (NCI-H838; first compound 2.53 µM) of 1.08. The relative viability (ABC-1; first compound 0.08 µM) was 0.9, the relative viability (ABC-1; first compound 0.253 µM) was 0.936 and the relative viability (ABC-1; first compound 0.8 µM) was 1.06. It also gave a relative viability (ABC-1; first compound 2.53 µM) of 1.16, a relative viability (SK-LU-1; first compound 0.08 µM) of 0.842 and a relative viability (SK-LU-1; first compound 0.253 µM) of 0.873. It also gave a relative viability (SK-LU-1; first compound 0.8 µM) of 0.855, a relative viability (SK-LU-1; first compound 2.53 µM) of 0.827 and a relative viability (HARA; first compound 0.08 µM) of 1. It also gave a relative viability (HARA; first compound 0.253 µM) of 0.743, a relative viability (HARA; first compound 0.8 µM) of 0.883 and a relative viability (HARA; first compound 2.53 µM) of 0.874. For the same compound, the relative viability (COR-L23; first compound 0.08 µM) was 1.21, the relative viability (COR-L23; first compound 0.253 µM) was 0.926 and the relative viability (COR-L23; first compound 0.8 µM) was 0.989. It also gave a relative viability (COR-L23; first compound 2.53 µM) of 0.894, a relative viability (HCC-15; first compound 0.08 µM) of 1.05 and a relative viability (HCC-15; first compound 0.8 µM) of 1.03. For the same compound, the relative viability (HCC-15; first compound 2.53 µM) was 1.05.
